Source: patent EP0566020A1, “Benzimidazoles, pharmaceutical compositions thereof and processes for their preparation” (Dr. Karl Thomae GmbH, priority 1992, dated 1993)

The compounds below were run against T1, Angiotensin II-Rezeptor (Rattus norvegicus, UniProt P25095) (assay: Angiotensin II receptor binding ([125I]-angiotensin II displacement, rat lung homogenate)). Conditions: Rattenlunge homogenate, 50 pM [¹²⁵I]-Angiotensin II, 60 Min. bei 37°C; read-out: IC₅₀.
T1 construct: Das Gewebe (Rattenlunge) wird in Tris-Puffer; from tissue; host or cells: rat lung homogenate (membrane pellet, 20,000 x g)
T1 sequence (P25095 1-359): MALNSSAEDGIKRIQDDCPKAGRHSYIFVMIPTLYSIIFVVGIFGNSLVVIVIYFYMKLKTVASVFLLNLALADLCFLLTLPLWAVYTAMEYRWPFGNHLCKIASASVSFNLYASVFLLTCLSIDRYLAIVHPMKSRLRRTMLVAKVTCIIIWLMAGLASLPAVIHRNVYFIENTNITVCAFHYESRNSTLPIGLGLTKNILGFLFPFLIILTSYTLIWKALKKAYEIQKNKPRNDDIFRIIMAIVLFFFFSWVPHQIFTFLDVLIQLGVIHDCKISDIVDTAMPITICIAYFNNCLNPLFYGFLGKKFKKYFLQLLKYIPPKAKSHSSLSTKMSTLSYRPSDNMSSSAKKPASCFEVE
Design: species or system Ratte
Procedure: Methodenbeschreibung Angiotensin II-Rezeptorbindung
Das Gewebe (Rattenlunge) wird in Tris-Puffer (50 mMol Tris, 150 mMol NaCl, 5 mMol EDTA, pH 7.40) homogenisiert und zweimal je 20 Min. bei 20.000 x g zentrifugiert. Das endgültige Pellet wird in Inkubations-Puffer (50 mMol Tris, 5 mMol MgCl₂, 0,2 % BSA, pH 7,40) 1:75, bezogen auf das Feuchtgewicht des Gewebes, resuspendiert. Je 0,1 ml Homogenat wird für 60 Min. bei 37°C mit 50 pM [¹²⁵I]-Angiotensin II (NEN, Dreieich, FRG) und steigenden Konzentrationen der Testsubstanz in einem Gesamtvolumen von 0,25 ml inkubiert. Die Inkubation wird durch rasche Filtration durch Glasfiber-Filtermatten beendet. Die Filter werden je 4 ml eiskaltem Puffer (25 mMol Tris, 2.5 mMol MgCl₂, 0,1 % BSA, pH 7,40) gewaschen. Die gebundene Radioaktivität wird in einem Gamma-Counter ermittelt. Aus der Dosis-Wirkungskurve wird der entsprechende IC₅₀-Wert ermittelt.

Structure (SMILES)	IC50
CCCc1nc2c(C)cc(-c3nc4c(n3C)CCCC4)cc2n1Cc1ccc(-c2ccccc2-c2nnn[nH]2)cc1 [Substanz C, 4'-[[2-n-Propyl-4-methyl-6-(1-methyl-5,6,7,8-tetrahydrobenzimidazol-2-yl)-1H-benzimidazol-1-yl]-methyl]-2-(1H-tetrazol-5-yl)biphenyl]	2.6 nM
CCc1nc2c(C)cc(-c3nc4c(n3-c3ccccc3)CCCC4)cc2n1Cc1ccc(-c2ccccc2C(=O)O)cc1 [Substanz E, 4'-[[2-Ethyl-4-methyl-6-(1-phenyl-5,6,7,8-tetrahydrobenzimidazol-2-yl)-1H-benzimidazol-1-yl]-methyl]-biphenyl-2-carbonsäure-hydrat]	46 nM
CCc1nc2c(C)cc(-c3nc4c(n3CC)CCCC4)cc2n1Cc1ccc(-c2ccccc2-c2nnn[nH]2)cc1 [Substanz G, 4'-[[2-Ethyl-4-methyl-6-(1-ethyl-5,6,7,8-tetrahydro-benzimidazol-2-yl)-1H-benzimidazol-1-yl]-methyl]-2-(1H-tetrazol-5-yl)-biphenyl-hydrat]	1.6 nM
CCCc1nc2c(C)cc(-c3nc(-c4ccccc4)c(C)n3C)cc2n1Cc1ccc(-c2ccccc2C(=O)O)cc1 [Substanz I, 4'-[[2-n-Propyl-4-methyl-6-(1,5-dimethyl-4-phenyl-imidazol-2-yl)-1H-benzimidazol-1-yl]-methyl]-biphenyl-2-carbonsäure-hydrat]	3.2 nM
CCCc1nc2c(C)cc(-c3nc(C(C)C)c(C)n3C)cc2n1Cc1ccc(-c2ccccc2C(=O)O)cc1 [Substanz K, 4'-[[2-n-Propyl-4-methyl-6-(4-isopropyl-1,5-dimethyl-imidazol-2-yl)-1H-benzimidazol-1-yl]-methyl]-biphenyl-2-carbonsäure x 1,25 Wasser]	19.5 nM

More lines, now with the values ahead:

IC50	Structure (SMILES)
12 nM	CCCc1nc2c(C)cc(-c3nc4c([nH]3)CCCC4)cc2n1Cc1ccc(-c2ccccc2C(=O)O)cc1 [Substanz A, 4'-[[2-n-Propyl-4-methyl-6-(5,6,7,8-tetrahydrobenzimidazol-2-yl)-1H-benzimidazol-1-yl]-methyl]-biphenyl-2-carbonsäure]
3.8 nM	CCCc1nc2c(C)cc(-c3nc4c(n3C)CCCC4)cc2n1Cc1ccc(-c2ccccc2C(=O)O)cc1 [Substanz B, 4'-[[2-n-Propyl-4-methyl-6-(1-methyl-5,6,7,8-tetrahydrobenzimidazol-2-yl)-1H-benzimidazol-1-yl]-methyl]-biphenyl-2-carbonsäure]
6 nM	CCCc1nc2c(C)cc(-c3nc4c(n3Cc3ccccc3)CCCC4)cc2n1Cc1ccc(-c2ccccc2C(=O)O)cc1 [Substanz D, 4'-[[2-n-Propyl-4-methyl-6-(1-benzyl-5,6,7,8-tetrahydrobenzimidazol-2-yl)-1H-benzimidazol-1-yl]-methyl]-biphenyl-2-carbonsäure]
38 nM	CCCc1nc2c(C)cc(-c3nc4c(n3CC(=O)O)CCCC4)cc2n1Cc1ccc(-c2ccccc2C(=O)O)cc1 [Substanz F, 4'-[[2-n-Propyl-4-methyl-6-(1-carboxymethyl-5,6,7,8-tetrahydrobenzimidazol-2-yl)-1H-benzimidazol-1-yl]-methyl]-biphenyl-2-carbonsäure-semihydrat]
37 nM	CCCc1nc2c(C)cc(C3=NC(C)(C)CO3)cc2n1Cc1ccc(-c2ccccc2C(=O)O)cc1 [Substanz H, 4'-[[2-n-Propyl-4-methyl-6-(4,4-dimethyl-oxazolin-2-yl)-1H-benzimidazol-1-yl]-methyl]-biphenyl-2-carbonsäure-di-trifluoracetat]
